# Results: patent US6770649B2, “1-[1-(hetero)aryl-1-perhydroxyalkylmethyl]-piperazine compounds, process for their preparation and pharmaceutical compositions containing them” (Solvay Pharmaceuticals GmbH, priority 2001, dated 2004)
# Target: T1, human NK-2 receptor (Homo sapiens, UniProt P21452)
# T1 construct: expressed in transfected cells; host or cells: CHO cells (membrane preparation)
# T1 sequence (P21452 1-398): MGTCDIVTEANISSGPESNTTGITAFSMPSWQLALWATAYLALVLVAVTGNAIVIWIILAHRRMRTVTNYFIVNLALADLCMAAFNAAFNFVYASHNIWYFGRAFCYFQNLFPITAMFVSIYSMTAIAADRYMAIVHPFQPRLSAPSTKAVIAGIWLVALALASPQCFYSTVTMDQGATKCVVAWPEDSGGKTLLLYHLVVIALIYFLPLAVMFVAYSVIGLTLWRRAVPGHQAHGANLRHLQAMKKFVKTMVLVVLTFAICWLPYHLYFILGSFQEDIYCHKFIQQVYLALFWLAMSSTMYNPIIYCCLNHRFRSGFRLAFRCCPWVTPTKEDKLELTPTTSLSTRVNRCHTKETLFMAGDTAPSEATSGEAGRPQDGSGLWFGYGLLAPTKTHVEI
# Assay: Binding power of the test substances to NK-2 receptors in vitro ([3H]-SR 48968 displacement, CHO cell membranes)
# Conditions: displacement of [3H]-SR 48968, 90 min incubation, average of at least three measurements, 10^-6 to 10^-10 mol/l, read-out: pKi, affinity to human NK-2 receptors (converted)
# Description: 1. Determination of the Binding Power of the Test Substances to NK-2 Receptors in vitro
# The affinity of the test substances to human NK-2 receptors was measured in vitro. The ability of the test substances to displace the selective NK-2 receptor antagonist SR 48968 (=saredutant) used as reference ligand from its corresponding bond was determined.
# The receptor binding studies were carried out with radioactively marked [^3H]-SR 48968 (from Amersham) as ligand. For the binding test, different samples of a membrane preparation of CHO cells (=[…]), which express the human NK-2 receptor (for preparation, see N. P. Gerard et al., Journal of Biological Chemistry 265/33 (1990) 20455-20462), were incubated for 90 minutes (=min.) with a solution of the marked ligand, with the incubation mixtures containing no test substance or additions of different concentrations of test substance. Then in each case the membrane-bound ligands in the samples were separated from free ligands by filtration. The fraction remaining in the filter was washed several times with buffer solution, before its radioactivity was measured using a liquid scintillation counter. That concentration which effects half-maximum displacement of the bound reference ligand was determined as IC50 of the respective test substance. The inhibition constant (Ki value) of the test substance was calculated from the respective IC50 value, and was stated as the negative logarithmised value thereof (pKi).
# For the compounds of Examples 1 to 39, the affinity to human NK-2 receptors was determined in each case by at least three measurements of the test substances in concentration series of 10^−6 to 10^−10 mol/l. If several measurements were performed, the average thereof was listed each time.
row,Ki [nM],Structure (SMILES)
1,≤ 10,CN(CC(CCN1CCN(C(c2ccco2)[C@H](O)[C@@H](O)[C@H](O)CO)CC1)c1ccc(Cl)c(Cl)c1)C(=O)c1ccccc1 (mixture of isomers) [Example 13]
2,≤ 10,CC(=O)OC[C@@H](OC(C)=O)[C@H](OC(C)=O)[C@@H](OC(C)=O)C(c1ccsc1)N1CCN(CC[C@H](CN(C)C(=O)c2ccccc2)c2ccc(Cl)c(Cl)c2)CC1 (stereo partly drawn) [Example 14]
3,≤ 1,"CN(C[C@@H](CCN1CCN(C(c2ccsc2)[C@H](O)[C@@H](O)[C@H](O)CO)CC1)c1ccc(Cl)c(Cl)c1)C(=O)c1ccccc1 (stereo partly drawn) [Example 1, N-((2S)-2-(3,4-dichlorophenyl)-4-{4-[(2S,3R,4R)-2,3,4,5-tetrahydroxy-1-(3-thienyl)pentyl]-1-piperazinyl}butyl)-N-methylbenzamide]"
